We go through 13 molecules from patent publication US8372176B2, “Metal complexes comprising a ligand derived from 2-aryl-2-hydroxyacetic acid and a divalent or trivalent metal cation, and their use” (Clariant Specialty Fine Chemicals (France), priority 2006, dated 2013).

Series [1] is described as follows: Dissolution of FeCl3 with ligand in aqueous phase at neutral or basic pH; Fe in filtrate by ICP-OES. The series is classed as physicochemical. Here is the method: (§1) The invention is illustrated without implied limitation by the following examples, in which the amounts of metals in solution were measured by ICP-OES (Inductively Coupled Plasma-Optical Emission Spectroscopy).
(§2) In the examples which follow, the term “theoretical % by weight of metal in solution” is understood to mean the ratio, expressed as percentage, of the total weight of metal initially introduced into the reaction medium to the weight of the filtrate recovered and analysed.
(§3) 4.92 g (0.025 mol) of OHMNa are dissolved in 19.17 ml of water. 20.27 g of an aqueous solution comprising 6.76 g of FeCl3 hexahydrate (0.025 mol) are added over 15 min while maintaining the temperature of the reaction medium at approximately 20° C. The pH of the solution is adjusted to 7 by addition of a 50% by weight aqueous sodium hydroxide solution (5.87 g). The mixture is subsequently stirred at ambient temperature for 24 h. After filtering and washing with water, 59.9 g of a solution with a dark brown-red colour are recovered.
8.11 g of FeCl3 hexahydrate are dissolved in 12 ml of water. The pH is adjusted to 7 by addition of a 50% by weight aqueous sodium hydroxide solution. After filtering and washing with water, less than 10 ppm of Fe are measured in the filtrate.
2.05 g (0.01 mol) of 5-chloro-2-hydroxymandelic acid are suspended in 15 ml of water. 0.8 g of 50% by weight sodium hydroxide solution (0.01 mol) is added in order to obtain a solution. 17.7 g of an aqueous solution comprising 2.7 g of FeCl3 hexahydrate (0.01 mol) are added over 15 min while maintaining the temperature of the reaction medium at approximately 20° C. The pH of the solution is adjusted to 7 by addition of 2.4 g of a 50% by weight aqueous sodium hydroxide solution. The mixture is subsequently stirred at ambient temperature for 24 h. After filtering, 35.1 g of a solution with a dark brown-red colour are recovered.
The procedure of Example 1 or 2 is repeated but using, according to the invention, the ligands B, C, D and E of formula (I), the structures of which are described in Table 1 below, and varying the ligand/metal molar ratios, if appropriate.
The procedure of Example 2 is repeated by using the compounds G, H, I and J as ligands, the structures of which are described in Table 4 below, and varying the ligand/metal molar ratios, if necessary.
The procedure described in Example 1 is repeated but adjusting the pH of the solution to 6, 7, 9, 10 and 12.
A solution composed of 40 g of water and of 12.97 g of FeCl3 hexahydrate (0.048 mol) is added over 15 min to 43.5 g of an aqueous solution comprising 10.2 g of OHM.2Na (0.048 mol) while maintaining the temperature of the reaction medium at approximately 20° C. The pH of the solution is adjusted to 7 by addition of a 50% by weight aqueous sodium hydroxide solution (5.1 g). The mixture is subsequently stirred at ambient temperature for 5 weeks without specific protection with regard to light. After filtering, 80 g of a solution with a dark brown-red colour are recovered.
1.98 g (0.01 mol) of OHMNa are dissolved in 8 ml of water.
12.7 g of an aqueous solution comprising 2.7 g of FeCl3 hexahydrate (0.01 mol) are added over 15 min while maintaining the temperature of the reaction medium at approximately 20° C. The pH of the solution is adjusted to 7 by addition of 2.3 g of a 50% by weight aqueous sodium hydroxide solution. A suspension of 1.0 g (0.01 mol) of CaCO3 in 15 g of water is subsequently added. A few drops of 37% HCl are added to adjust the pH to 7. The mixture is subsequently stirred at ambient temperature for 24 hours. After filtering, 35.0 g of a solution with a dark brown-red colour are recovered.

The nature of series [2]: Dissolution of Mg(II) cations with OHM.2Na at pH 12. The conditions noted are these: 0.05 mol OHM.2Na. The series is classed as physicochemical. On the procedure:
To an aqueous solution (60 g) containing 0.05 mol of OHM.2Na, are added 9.9 g of an aqueous solution containing 0.025 mole of magnesium chloride (MgCl2). The pH is set at 12 with 1 g of an aqueous solution of HCl 1N. […] Without the OHM.2Na, the magnesium precipitate at pH 12 as a white solid (Mg(OH)2).
To an aqueous solution (60 g) containing 0.05 mol of OHM.2Na, are added 19.8 g of an aqueous solution containing 0.05 mole of magnesium chloride (MgCl2). The pH is set at 12 with 2.6 g of an aqueous solution of NaOH 30%. […] Without the OHM.2Na, the magnesium precipitate at pH 12 as a white solid (Mg(OH)2).

The nature of series [3]: Dissolution of Al(III) cations with OHMNa; metal in filtrate by ICP-OES. The series is classed as physicochemical. On the procedure:
as §1, §2, §3
(§4) The procedure of Example 1 is repeated but substituting FeCl3 by AlCl3, CrCl3.6H2O and Cu(OAc)2.H2O respectively.

Series [4] is described as follows: Dissolution of Cr(III) cations with OHMNa; metal in filtrate by ICP-OES. Format: physicochemical. Here is the method: as §1, §2, §3, §4
Series [5] can be described thus: Dissolution of Cu(II) cations with OHMNa; metal in filtrate by ICP-OES. Format: physicochemical. Here is the method:
as §1, §2, §3, §4

Series [6] in a line: Iron content of the dried powder by ICP-OES. The series is classed as physicochemical. The conditions noted are these: ICP-OES measurement on powder. Here is the method: as §1
The dark brown-red solution obtained in Example 1 is concentrated by distillation of water. The residue is dried in an oven at 50° C. for 48 h. A red-brown powder is obtained which comprises 12% by weight of iron by ICP-OES measurement.
A measurement on a powder formed of [Fe(o,o-EDDHA)Na] chelate available commercially gives only 7.8% by weight of iron.

The conditions of series [7]: background statement, on average; cited from earlier work.
The conditions of series [8]: commercial chelates, background statement; cited from earlier work.
The mark [9] stands for this setting: pH 7, stirred 24 h at ambient temperature, filtrate.
Setting [10] is: pH 7, total Fe introduced / weight of filtrate.
[11] abbreviates: Table 6, comparative ligands, pH 7.
[12] abbreviates: Table 6, pH 7, ligand/iron molar ratio of 2/1.

Molecules are shown by their SMILES. Where only a bound is given, the exact number is not on record here.

For `O=C(O)C(O)c1cc(Cl)ccc1O` (stereo not shown) [5-chloro-2-hydroxymandelic acid], in series [1] (setting [9]), the “% by weight of Fe in solution measured” value is 1.3 % by weight. For the same molecule, in series [1] (setting [10]), the “Theoretical % by weight of Fe in solution” value came to 1.59 % by weight.
As to `O=C([O-])C(O)c1ccc(O)cc1.[Na+]` (stereo not shown) [Example 3], in series [1] (Table 3, ligands B-E, pH 7), the “% by weight measured (Fe in solution)” value came out at 1.1 % by weight and the “Theoretical % by weight of Fe in solution” value was 1.47 % by weight.
With `CCOc1cc(C(O)C(=O)O)ccc1O` (stereo not shown) [Example 4], in series [1] (Table 3, ligands B-E, pH 7), the “% by weight measured (Fe in solution)” value is on record as 1.5 % by weight and the “Theoretical % by weight of Fe in solution” value is recorded as 1.83 % by weight.
Turning to `O=C(O)C(O)c1ccc(O)c(O)c1` (stereo not shown) [Example 5], in series [1] (Table 3, ligands B-E, pH 7), the “% by weight measured (Fe in solution)” value was determined as 1.2 % by weight and the “Theoretical % by weight of Fe in solution” value amounted to 1.49 % by weight.
For the molecule `O=C(O)C(O)c1cc(F)ccc1O` (stereo not shown) [Example 6], in series [1] (Table 3, ligands B-E, pH 7), the “% by weight measured (Fe in solution)” value is reported as 1.4 % by weight and the “Theoretical % by weight of Fe in solution” value came out at 1.46 % by weight.
`O=C([O-])C(O)c1ccccc1[O-].[Na+].[Na+]` (stereo not shown) [OHM.2Na, disodium salt of 2-(2-hydroxyphenyl)-2-hydroxyacetic acid]: the “Theoretical % by weight of Fe in solution” value in series [1] (pH 7, 5 weeks stirring) stood at 3.35 % by weight. Besides, the “% by weight of Fe in solution measured” value in series [1] (pH 7, stirred 5 weeks at ambient temperature without protection from light) is 3.2 % by weight. Besides, the “state of the solution after 24 hours under stirring” value in series [2] (0.025 mole MgCl2) is “still homogeneous, without any solid”; in series [2] (0.05 mole MgCl2), “still homogeneous, without any solid”.
In the case of `O=C([O-])C(O)c1ccccc1O.[Na+]` (stereo not shown) [OHMNa, sodium salt of 2-(2-hydroxyphenyl)-2-hydroxyacetic acid], the “% by weight measured (Fe in solution)” value is on record as 1.7 % by weight in series [1] (OHMNa, pH 6); 2.3 % by weight in series [1] (OHMNa, pH 7); 1.9 % by weight in series [1] (OHMNa, pH 9); 2.7 % by weight in series [1] (OHMNa, pH 10); 1.9 % by weight in series [1] (OHMNa, pH 12). In addition, the “Theoretical % by weight of Fe in solution” value in series [1] (OHMNa, pH 6) was determined as 2.18 % by weight; in series [1] (OHMNa, pH 7) it was 2.33 % by weight; in series [1] (OHMNa, pH 9) it was 1.96 % by weight; in series [1] (OHMNa, pH 10) it was 2.80 % by weight; in series [1] (OHMNa, pH 12) it was 1.92 % by weight; in series [1] (pH 7, in the presence of CaCO3) it was 1.59 % by weight. Moreover, in series [1] (setting [10]), the “Theoretical % by weight of Fe in solution” value worked out at 2.33 % by weight. Further, the “% by weight of Fe in solution measured” value in series [1] (pH 7, in the presence of CaCO3 (0.01 mol), 24 hours) was determined as 1.4 % by weight; in series [1] (setting [9]), 2.3 % by weight. The “Theoretical % by weight of metal in solution” value in series [3] (pH 7) came out at 1 % by weight; in series [4] (pH 7) it was 1.83 % by weight; in series [5] (pH 7), 1.43 % by weight. Further, the “% by weight measured (metal in solution)” value amounted to 1 % by weight in series [3] (pH 7, 24 h); 1.40 % by weight in series [4] (pH 7, 24 h); 1.40 % by weight in series [5] (pH 7, 24 h).
`O=C(O)C(NCCNC(C(=O)O)c1ccccc1O)c1ccccc1[O-].[Fe].[Na+]` (stereo not shown) [[Fe(o,o-EDDHA)Na]]: in series [6], the “% by weight of iron in the powder” value is on record as 7.8 % by weight. Besides, the “level of iron of commercial chelates” value in series [7] was approximately 6 % by weight. For the same molecule, in series [8], the solubility in water is on record as 150-300 g/l of water.
Regarding `O.O.O.O.O.O.[Cl-].[Cl-].[Cl-].[Fe+3]` [compound 1, FeCl3 hexahydrate, reference compound], the “Fe measured in the filtrate” value in series [1] (FeCl3 hexahydrate without ligand, pH 7) is “less than 10 ppm”.
With `O=C(O)Cc1ccccc1O` [compound 2, reference compound], in series [1] (setting [11]), the “% by weight measured (Fe in solution)” value is reported as less than 0.0025 % by weight and the “Theoretical % by weight of Fe in solution” value stood at 2.88 % by weight. Moreover, in series [1] (setting [12]), the “% by weight measured (Fe in solution)” value worked out at 0.01 % by weight and the “Theoretical % by weight of Fe in solution” value is 1.67 % by weight. Moreover, in series [1] (pH 7), the “dissolution of iron in aqueous solution at pH 7 (in words)” value (shortened to “dissolution of iron in aqueous solution”) is “do not make possible or make possible only to a very slight extent the dissolution of iron”.
`O=C(O)C(=O)c1ccccc1O` [compound 3, reference compound]: in series [1] (setting [11]), the “% by weight measured (Fe in solution)” value is 0.5 % by weight and the “Theoretical % by weight of Fe in solution” value was 4.09 % by weight. In series [1] (pH 7), the “dissolution of iron in aqueous solution” value was “do not make possible or make possible only to a very slight extent the dissolution of iron”.
As to `O=C(O)C(O)c1ccccc1` (stereo not shown) [compound 4, reference compound], in series [1] (setting [11]), the “% by weight measured (Fe in solution)” value is reported as 0.09 % by weight and the “Theoretical % by weight of Fe in solution” value is 2.38 % by weight. In series [1] (pH 7), the “dissolution of iron in aqueous solution” value is “do not make possible or make possible only to a very slight extent the dissolution of iron”.
For the molecule `O=C(O)C(O)c1ccccc1Cl` (stereo not shown) [compound 5, reference compound], in series [1] (setting [11]), the “% by weight measured (Fe in solution)” value was 0.01 % by weight and the “Theoretical % by weight of Fe in solution” value was 4.73 % by weight. Further, the “dissolution of iron in aqueous solution” value in series [1] (pH 7) is listed as “do not make possible or make possible only to a very slight extent the dissolution of iron”.
